The text below walks through data of patent publication US5595883A, “Method of diagnosing alzheimer's disease by measuring acetylcholinesterase activity in ocular fluid” (priority 1990, dated 1997).

SMILES strings stand for the structures.

This assay deals with AChE. Kind of assay: Cholinesterase activity of human ocular fluid (micro Ellman assay, acetylthiocholine substrate), inhibition by BW 284c51. The conditions noted are these: BW 284c51 1.5 μM, acetylthiocholine 1.0 mM, pH 7.0, 25° C. It is filed as biochemical. On the procedure: Cholinesterase activities were measured by a microversion of the method of Ellman et al, (1961) supra, using microtitre plates. Acetylthiocholine was used as substrate at a concentration of 1.0 mM, which is optimal for AChE, but suboptimal for BuChE. The assay was performed in 0.05M Na/K phosphate buffer, pH 7.0 at 25° C., containing 3 mM 5,5'-dithio-bis-(2-nitrobenzoate), in a total volume of 100 μL. The rate of hydrolysis of acetylthiocholine was monitored by measurement of absorbances at 410 nm, using a Titertek multiscan microplate reader. A calibration curve was constructed using purified electric eel AChE (Sigma). AChE and BuChE activities were distinguished by use of the specific AChE inhibitor 1,5-bis-(-4-allyldimethylammoniumphenyl)pentan-3-one dibromide (BW 284c51) (1.5 μM).

Consider `C=CC[N+](C)(C)c1ccc(CCC(=O)CCc2ccc([N+](C)(C)CC=C)cc2)cc1` [BW 284c51, 1,5-bis-(-4-allyldimethylammoniumphenyl)pentan-3-one dibromide], for which the “inhibition of cholinesterase activity of ocular fluid” value is “Most of this activity was inhibited”.
